Measurements reported in patent publication US12325697B2 (Nimbus Clio, Inc., priority 2021, dated 2025).
pIC50: −log10 of the molar value.

The compounds below were run against Recombinant human Cbl-b (aa 36-427) (Homo sapiens (Human), UniProt Q13191) (assay: Cbl-b Biochemical Assay (TR-FRET)). Conditions: read-out: TR-FRET hCbl-b IC50.
Method: Recombinant human Cbl-b (aa 36-427) was expressed in E. coli, purified and biotinylated in vitro. The protein was diluted to 12 nM in freshly prepared assay buffer consisting of 50 mM HEPES, pH 7.0, 100 mM NaCl, 5 mM MgCl2, 0.01% Triton-X 100, 0.01% BSA and 1 mM DTT. Recombinant human Src (aa 254-536)-[…]-Zap-70 (aa 281-297) fusion protein was expressed in E. coli and purified. Protein was diluted in assay buffer to 2-5 nM and supplemented with ATP to 1 mM. Fluorescein-BODIPY labeled UBE[…]([…])-Ub was prepared by conjugating ubiquitin (Ub) labeled at its N-terminus with Fluorescein-BODIPY maleimide (ThermoFisher Catalog no B10250) to E. coli expressed and purified UBE[…]([…]) [see Dou et al Nature Structural and Molecular Biology 8: 982-987, 2013]. Recombinant human UBE2D2([…]) was expressed in E. coli, purified and ubiquitinated and Bodipy labelled in vitro. Protein was diluted to 200 nM in assay buffer without MgCl2 (or Cisbio PPI buffer). Streptavidin-Terbium was added to 2 nM and EDTA to 10 mM, to provide a binding assay mix. Compounds were dissolved in DMSO and diluted to prepare a ten-point dilution series. 100 nl of each compound concentration was dispensed in duplicate in a 384 well black assay plate using acoustic dispensing. Wells for maximum signal controls received 100 nl of DMSO only and wells for minimum signal controls received 100 nl of a reference inhibitor compound at a final assay concentration of […] to produce 100% inhibition. 5 μl of diluted Cbl-b enzyme was added to all wells of the assay plate and incubated at RT for 30-60 min. The enzyme assay was initiated by addition of 5 μl of Src-Zap/ATP mix to all wells, and the plate incubated at RT for 60 min. The enzyme reaction was terminated and the binding reaction was initiated by adding 10 μl of binding assay mix to all wells and incubating the plate at RT for 60 min prior to assay read. Final assay conditions consisted of 6 nM Cbl-b, 1-2.5 nM Src-Zap70, 0.5 mM ATP, 1% (v/v) DMSO (enzyme reaction) and 100 nM UBE2D2([…])-Ub-FL-BODIPY, 5 mM EDTA, 1 nM Streptavidin-Tb (binding reaction). The HTRF assay signal was measured at 520 nm on an Envision plate reader, with reference signal at 485 or 620 nm. Data was normalized using maximum and minimum assay controls: % Inhibition=100-(100*((maximum control)-unknown)/(maximum control-minimum control)). A 4-parameter dose-response equation was used to fit the normalized dose-response data and derive an IC50 for test compounds.

Chain of Recombinant human Cbl-b (aa 36-427) (Q13191 36-427): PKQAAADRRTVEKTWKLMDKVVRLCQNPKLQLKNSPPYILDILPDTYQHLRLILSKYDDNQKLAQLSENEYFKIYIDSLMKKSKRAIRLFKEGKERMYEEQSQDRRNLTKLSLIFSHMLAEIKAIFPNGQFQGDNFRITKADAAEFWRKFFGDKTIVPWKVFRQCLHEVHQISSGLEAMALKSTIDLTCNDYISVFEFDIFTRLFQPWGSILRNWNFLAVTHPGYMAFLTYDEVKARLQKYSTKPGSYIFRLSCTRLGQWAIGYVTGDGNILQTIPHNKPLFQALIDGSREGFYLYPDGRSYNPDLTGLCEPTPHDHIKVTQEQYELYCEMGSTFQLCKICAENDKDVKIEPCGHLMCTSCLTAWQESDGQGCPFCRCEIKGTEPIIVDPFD

SMILES | pIC50
Cc1conc1-c1ccccc1-c1cccc(N2Cc3c(cccc3C(F)(F)F)C2=O)c1 [AAZ-7, 2-(2′-(4-Methylisoxazol-3-yl)-[1,1′-biphenyl]-3-yl)-4-(trifluoromethyl)isoindolin-1-one] | 5.00 to 6.00
CCNc1cc(-c2c(-c3nncn3C)cnn2C)cc(N2Cc3c(cc(CN4CCC[C@@H](C)C4)cc3C(F)(F)F)C2=O)n1 [ACE-1, (R)-2-(6-(Ethylamino)-4-(1-methyl-4-(4-methyl-4H-1,2,4-triazol-3-yl)-1H-pyrazol-5-yl)pyridin-2-yl)-6-((3-methylpiperidin-1-yl)methyl)-4-(trifluoromethyl) isoindolin-1-one] | ≥ 6.70
CCNc1cc(-c2c(-c3nncn3C)cnn2C)cc(C(=O)O)n1 [ABQ-1, 6-(Ethylamino)-4-(1-methyl-4-(4-methyl-4H-1,2,4-triazol-3-yl)-1H-pyrazol-5-yl)picolinic acid] | 4.30 to 5.00
Cn1cnnc1-c1ccccc1-c1cccc(NC(=O)c2cc(OCCN3CCCC3)nc(C3CC3)n2)c1 [ABK-7, 2-Cyclopropyl-N-(2′-(4-methyl-4H-1,2,4-triazol-3-yl)-[1,1′-biphenyl]-3-yl)-6-(2-(pyrrolidin-1-yl)ethoxy)pyrimidine-4-carboxamide] | 6.00 to 6.70
Cn1cnnc1-c1ccccc1-c1cccc(NC(=O)c2cc(=O)n(CCN3CCCC3)c(C3CC3)n2)c1 [ABM-1, 2-Cyclopropyl-N-(2′-(4-methyl-4H-1,2,4-triazol-3-yl)-[1,1′-biphenyl]-3-yl)-6-oxo-1-(2-(pyrrolidin-1-yl)ethyl)-1,6-dihydropyrimidine-4-carboxamide] | 5.00 to 6.00
CCNc1cc(-c2c(-c3nncn3C)cnn2C)cc(N2Cc3c(cccc3C(F)(F)F)C2=O)c1 [ABX-6, 2-[3-(Ethylamino)-5-[2-methyl-4-(4-methyl-1,2,4-triazol-3-yl)pyrazol-3-yl]phenyl]-4-(trifluoromethyl)-3H-isoindol-1-one] | ≥ 6.70
CCNc1cc(-c2ccccc2-c2nncn2C)cc(N2Cc3c(cc(CN[C@@H]4CCC[C@H]4O)cc3C(F)(F)F)C2=O)n1 [AO-1, 2-(6-(Ethylamino)-4-(2-(4-methyl-4H-1,2,4-triazol-3-yl)phenyl)pyridin-2-yl)-6-((((1R,2R)-2-hydroxycyclopentyl)amino)methyl)-4-(trifluoromethyl)isoindolin-1-one] | ≥ 6.70
COc1ccc([C@@H](C)Cc2nncn2C)cc1N1Cc2c(cc(CN3CCCC3)cc2C(F)(F)F)C1=O [Example F-9, (S)-2-(2-Methoxy-5-(1-(4-methyl-4H-1,2,4-triazol-3-yl)propan-2-yl)phenyl)-6-(pyrrolidin-1-ylmethyl)-4-(trifluoromethyl)isoindolin-1-one] | 5.00 to 6.00
C[C@H]1CN(Cc2cc3c(c(C(F)(F)F)c2)CN(c2cccc(-c4ccccc4-c4nncn4C)c2)C3=O)CCO1 [AB-2, (S)-2-(2′-(4-Methyl-4H-1,2,4-triazol-3-yl)-[1,1′-biphenyl]-3-yl)-6-((2-methylmorpholino)methyl)-4-(trifluoromethyl)isoindolin-1-one] | ≥ 6.70
CCNc1cc(-c2ccccc2-c2nncn2C)cc(N2Cc3c(cc(CN4CCOCC4)cc3C(F)(F)F)C2=O)n1 [AM-2, 2-(6-(Ethylamino)-4-(2-(4-methyl-4H-1,2,4-triazol-3-yl)phenyl)pyridin-2-yl)-6-(morpholinomethyl)-4-(trifluoromethyl)isoindolin-1-one] | ≥ 6.70
CCNc1cc(-c2c(-c3nncn3C)cnn2C)cc(N2Cc3c(cc(CN4CC(F)C4)cc3C(F)(F)F)C2=O)n1 [ABN-2, 2-(6-(Ethylamino)-4-(1-methyl-4-(4-methyl-4H-1,2,4-triazol-3-yl)-1H-pyrazol-5-yl)pyridin-2-yl)-6-((3-fluoroazetidin-1-yl)methyl)-4-(trifluoromethyl)isoindolin-1-one] | ≥ 6.70
O=C1c2cccc(C(F)(F)F)c2CN1c1cccc(-c2ccccc2-c2nnco2)c1 [ABA-4, 2-(2′-(1,3,4-Oxadiazol-2-yl)-[1,1′-biphenyl]-3-yl)-4-(trifluoromethyl)isoindolin-1-one] | 4.30 to 5.00
